The values below come from patent US20120164104A1, “Composition and Methods of Treating Viral Infections and Viral Induced Tumors” (Chimerix, Inc., priority 2009, published 2012).

In general, EC50 refers to the concentration at which the effect is half-maximal. What is called IC50 is the concentration needed to halve the response being measured.

Assay [1] concerns BK virus. The assay is described as follows: Antiviral activity against BK virus in RPTEC cells (viral DNA by qPCR, 5 days). The class given is cell-based. Conditions: for EC50: Betapolyomavirus hominis, RPTEC, RPTEC cells. On the procedure:
In order to test the activity of CMX001 to inhibit replication of BK virus, stocks of BK virus were prepared in HFF cells and dilutions of the virus stocks were used to infect primary human renal tubular epithelial cells (RPTECs). CMX001 were then added to the wells containing the infected cells and the plates were incubated for 5 days. Total DNA was prepared from the plates and viral DNA was quantified by qPCR.
(Real-time PCR tracks product formation cycle by cycle.)

Assay [2] relates to SCaBER. Put plainly: Cell proliferation assay (MTS or SRB), SCaBER. In kind it is cell-based. Conditions: Homo sapiens, 72 h, Bladder, 3 days, read-out: IC50 (cell growth inhibition). On the procedure:
(§1) In vitro cell proliferation assays were performed using a 96-well plate based MTSassay (CellTiter 96° AqueousOne Solution Cell Proliferation Assay, Promega) or SRB (Sulforhodamine-B) assay (1-3). Briefly, cells were plated in 100 μl medium on day 0 in 96-well microtiter plates (Falcon #3072). On day 1, 10 μl of serial dilutions of each compound (Nine 1:2 dilutions with a starting concentration of 100 μM; in some cases, a starting concentration of 400 μM (CMX001 or Cidofovir) or 1 μM (some standard agents)) were added in triplicates to the plates. For standard agents using DMSO as solvent, serial dilutions of DMSO with a starting concentration of 0.5% were also included as a vehicle control.
(§2) After incubation for 3 days at 37° C. in a humidified incubator, viable cells were measured either by MTS or SRB assay. For MTS assay, 20 μl of a 20:1 mixture of (3-(4,5-dimethylthiazol-2-yl)-5-(3-carboxymethoxyphenyl)-2-(4-sulfophenyl)-2H-tetrazolium, inner salt (MTS, 2 mg/ml) and an electron coupling reagent, phenazine methosulfate (PMS, 0.92 mg/ml in DPBS), was added to each well and incubated for 3 hours at 37° C. Absorbance was measured using a BioTek Synergy™ HT Multiple Detection microplate reader at 490 nm. For SRB assay, cells were fixed in situ with 50 μL of cold trichloroacetic acid (TCA, final concentration at 10% w/v) for 60 minutes. Cells were then washed 5 times with H2O and air-dried.
(§3) Next, cells were stained with 20 μL of 0.2% SRB in 1% acetic acid and incubated at room temperature for 30 minutes and unbound SRB was removed by washing 5 times with 1% acetic acid and air-dried. Finally, bound SRB stain was solubilized in 50 μL of 50 μM Tris buffer before taking an optical density measurement at 570 nm using the BioTek microplate reader. The growth inhibition data were expressed as the percentage of cell survival calculated from the background corrected absorbance. The surviving fraction of cells was determined by dividing the mean absorbance values of the test agent-treated samples by the mean absorbance values of untreated control. […]

In assay [3] the test system is SW 780. The assay is described as follows: Cell proliferation assay (MTS or SRB), SW 780. In kind it is cell-based. Conditions: Homo sapiens, SW780, 72 h; SW 780, Bladder, 3 days; read-out: IC50 (cell growth inhibition). Here is the method:
as §1, §2, §3

Assay [4] relates to DU 145. The assay is described as follows: Cell proliferation assay (MTS or SRB), DU 145. The class given is cell-based. Conditions: Homo sapiens, 72 h; DU 145, Prostate, 3 days; read-out: IC50 (cell growth inhibition). On the procedure:
as §1, §2, §3

In assay [5] the test system is PC-3. Put plainly: Cell proliferation assay (MTS or SRB), PC-3. In kind it is cell-based. Conditions: Homo sapiens, 72 h; PC-3, Prostate, 3 days; read-out: IC50 (cell growth inhibition). Here is the method: as §1, §2, §3
Assay [6] relates to MCF-7. Put plainly: Cell proliferation assay (MTS or SRB), MCF-7. The class given is cell-based. Conditions: Homo sapiens, MCF7, 72 h; MCF-7, Breast, 3 days; read-out: IC50 (cell growth inhibition). Here is the method:
as §1, §2, §3

Assay [7] relates to PANC-1. Put plainly: Cell proliferation assay (MTS or SRB), PANC-1. The class given is cell-based. Conditions: Homo sapiens, 72 h; PANC-1, Pancreatic, 3 days; read-out: IC50 (cell growth inhibition). Here is the method:
as §1, §2, §3

Assay [8] has as its system MIA PaCa-2. The assay is described as follows: Cell proliferation assay (MTS or SRB), MIA PaCa-2. The class given is cell-based. Conditions: Homo sapiens, 72 h; MIA PaCa-2, Pancreatic, 3 days; read-out: IC50 (cell growth inhibition). Here is the method:
as §1, §2, §3

In assay [9] the test system is HT-29. Put plainly: Cell proliferation assay (MTS or SRB), HT-29. Conditions: Homo sapiens, 72 h; HT-29, Colon, 3 days; read-out: IC50 (cell growth inhibition). In kind it is cell-based, human. On the procedure:
as §1, §2, §3

Assay [10] concerns HCT-116. The assay is described as follows: Cell proliferation assay (MTS or SRB), HCT-116. Conditions: Homo sapiens, 72 h; HCT-116, Colon, 3 days; read-out: IC50 (cell growth inhibition). The class given is cell-based, human. Here is the method: as §1, §2, §3
Assay [11] concerns H460. Put plainly: Cell proliferation assay (MTS or SRB), H460. In kind it is cell-based. Conditions: Homo sapiens, NCI-H460, 72 h; H460, Lung, 3 days; read-out: IC50 (cell growth inhibition). Here is the method: as §1, §2, §3
Assay [12] has as its system A2058. The assay is described as follows: Cell proliferation assay (MTS or SRB), A2058. The class given is cell-based. Conditions: Homo sapiens, 72 h; A2058, Skin (melanoma), 3 days; read-out: IC50 (cell growth inhibition). Here is the method:
as §1, §2
Next, cells were stained with 20 μL of 0.2% SRB in 1% acetic acid and incubated at room temperature for 30 minutes and unbound SRB was removed by washing 5 times with 1% acetic acid and air-dried. Finally, bound SRB stain was solubilized in 50 μL of 50 μM Tris buffer before taking an optical density measurement at 570 nm using the BioTek microplate reader. The growth inhibition data were expressed as the percentage of cell survival calculated from the background corrected absorbance. The surviving fraction of cells was determined by dividing the mean absorbance values of the test agent-treated samples by the mean absorbance values of untreated control.
Raw data were acquired using a BioTek Synergy™ HT Multiple Detection microplate reader and imported into Microsoft Excel for analysis. The average signal of each treatment was calculated from the triplicates after subtracting the blank signals. The percentage survival values were calculated using the following formula: % survival=(average signal of the drug treatment/average signal of untreated controls)×100. The data were finally imported into the Prism 4 software (GraphPad Software, San Diego, Calif.) to generate the dose-activity curves using non-linear regression curve fit and to calculate the IC50 values.

For assay [13], the system named is C33A. The assay is described as follows: Cell proliferation assay (MTS or SRB), C33A. The class given is cell-based, human. Conditions: Homo sapiens, C-33-A, 72 h, Cervical, 3 days, read-out: IC50 (cell growth inhibition). On the procedure:
as §1, §2, §3

The test system of assay [14] is SiHa. The assay is described as follows: Cell proliferation assay (MTS or SRB), SiHa. Conditions: Homo sapiens, 72 h, Cervical, 3 days, read-out: IC50 (cell growth inhibition). The class given is cell-based, human. On the procedure:
as §1, §2, §3

The test system of assay [15] is SK-OV-3. The assay is described as follows: Cell proliferation assay (MTS or SRB), SK-OV-3. The class given is cell-based, human. Conditions: Homo sapiens, 72 h; SK-OV-3, Ovarian, 3 days; read-out: IC50 (cell growth inhibition). Here is the method: as §1, §2, §3
Assay [16] has as its system OVCAR-3. The assay is described as follows: Cell proliferation assay (MTS or SRB), OVCAR-3. In kind it is cell-based, human. Conditions: Homo sapiens, 72 h; OVCAR-3, Ovarian, 3 days; read-out: IC50 (cell growth inhibition). On the procedure: as §1, §2, §3
In assay [17] the test system is SK-HEP-1. Put plainly: Cell proliferation assay (MTS or SRB), SK-HEP-1. In kind it is cell-based. Conditions: Homo sapiens, SK-HEP1, 72 h; SK-HEP-1, Liver, 3 days; read-out: IC50 (cell growth inhibition). On the procedure: as §1, §2, §3
For assay [18], the system named is Hep G2. The assay is described as follows: Cell proliferation assay (MTS or SRB), Hep G2. In kind it is cell-based. Conditions: Homo sapiens, HepG2, 72 h; Hep G2, Liver, 3 days; read-out: IC50 (cell growth inhibition). On the procedure: as §1, §2, §3

SMILES strings stand for the structures. Read-outs that look alike come from different tables or passages of the source.

Consider `Nc1ccn(C[C@@H](CO)OCP(=O)(O)O)c(=O)n1` [cidofovir], for which the EC50 was 2 µM in assay [1] (virus dilution 1:10, read-out: EC50); 0.65 µM in assay [1] (virus dilution 1:50, read-out: EC50); 0.44 µM in assay [1] (virus dilution 1:100, read-out: EC50). For the same compound, the IC50 in [2], in assay [3], in [4], in [5], in assay [6] and in [7] was more than 100 µM each time. Also, the IC50 was more than 100 µM in assay [8]; more than 100 µM in assay [9]; more than 100 µM in [10]; more than 100 µM in [11]; more than 100 µM in [12]; 96.7 µM in [13]. For the same compound, the IC50 in assay [14] is 100 µM; in [15] it was more than 100 µM; in [16] it was more than 100 µM; in assay [17], more than 100 µM; in [18] it was more than 100 µM.

As for `CCCCCCCCCCCCCCCCOCCCOP(=O)(O)CO[C@H](CO)Cn1ccc(N)nc1=O` [CMX001], the EC50 in assay [1] (virus dilution 1:10) was determined as 0.016 µM; in assay [1] (virus dilution 1:50), 0.0035 µM; in [1] (virus dilution 1:100), 0.0037 µM. For the same compound, the “activity against BK virus replication” value in assay [1] (RPTECs, in words) is listed as “good activity”. Besides, the IC50 in assay [2] was 82.1 µM; in [3] it was 10 µM; in [4], 19 µM; in [5], 6.6 µM; in assay [6], 62 µM; in assay [7] it was 91.5 µM. Also, the IC50 is 14.6 µM in assay [8]; 48.6 µM in [9]; 20.9 µM in assay [10]; 12.4 µM in assay [11]; 21.7 µM in assay [12]; 14.3 µM in assay [13]. For the same compound, the 50% inhibitory concentration (IC50) was found to be 43.1 µM in assay [14]; 95.5 µM in assay [15]; 73.3 µM in assay [16]; 7.4 µM in [17]; 37.9 µM in [18].
